Results reported in patent US9346801B2, “Substituted 7-oxo-pyrido[2,3-d]pyrimidines and methods of use” (AMGEN INC., priority 2013, dated 2016).

Assays:
Assay type in all cases: cell-based
[1] = system: H1975 (T790M/L858R) NSCLC cells; assay: Inhibition of proliferation of NSCLC cell lines, H1975; conditions: Cell Titer Glow; for IC50: Homo sapiens, NCI-H1975, 72 h, read-out: H1975 cell killing IC50; for H1975 cell killing IC50: 72 h
Experimental: (§1) NSCLC cell lines H1975 (T790M/L858R), HCC827 (Δ746-750) and A549 (wild-type) were seeded in 96-well tissue culture plates (Corning, Lowell, Mass.) at 5,000 cells/well (H1975) and 4,000 cells/well (HCC827 and A549) in 95 μL of cell growth media overnight. Compounds starting at 10 mM concentration and diluted 8 times (4-fold dilutions) in DMSO were diluted 50 fold in RPM1 then 5 μL was added to cells. After 72 h, viable cell signal was quantified using Cell Titer Glow (Promega, Madison, Wis.) and a SpectraMax M5 plate reader (Molecular Devices, Sunnyvale, Calif.) per manufacturer's instructions. Final DMSO concentration in test and control wells was 0.1%. No DSMO effect was noted on cell growth.

[2] = biological target: T1, Exon19 deletion (Δ746-750) EGFR phosphorylation in HCC827 NSCLC cells (Homo sapiens, UniProt P00533, DEL746-750); assay: Detection of pEGFR on NSCLC cell lines (MSD multiplex), HCC827; conditions: HCC827 (Δ746-750) cells, serum starved, 60 min compound
T1 construct: endogenous in cells; host or cells: HCC827 NSCLC cells
Experimental: (§2) The effects of compounds on the phosphorylation of wild-type, T790M mutant, and Exon19 deletion (A746-750) EGFR were monitored using Mesoscalc™ multiplex assays (MSD), in which levels of phosphorylated EGFR protein were determined using total […] levels as a control. H1975 (T790M/L858R), HCC827 (Δ746-750) and A549 (wild-type EGFR) NSCLC cells were plated on 6-well tissue culture plates, serum starved for overnight and treated with 9 concentrations of compound starting at 2 μM (5-fold dilutions) for 60 min. Wild-type A549 cells were challenged with 100 ng/ml EGF for 15 min before collection. Cells were lysed according to manufacturer's instructions and lysates processed for analysis in the […]) multiplex plate reader.

[3] = biological target: T2, wild-type EGFR phosphorylation in A549 NSCLC cells (Homo sapiens, UniProt P00533); assay: Detection of pEGFR on NSCLC cell lines (MSD multiplex), A549; conditions: 60 min compound, 100 ng/ml EGF for 15 min
T2 construct: Wild-type A549 cells were challenged with 100 ng/ml EGF for 15 min before collection; endogenous in cells; host or cells: A549 NSCLC cells
Experimental: as §2

[4] = system: HCC827 (Δ746-750) NSCLC cells; assay: Inhibition of proliferation of NSCLC cell lines, HCC827; conditions: Homo sapiens, 72 h, Cell Titer Glow, read-out: HCC827 cell killing IC50
Experimental: as §1

[5] = biological target: T3, T790M mutant EGFR phosphorylation in H1975 (T790M/L858R) NSCLC cells (Homo sapiens, UniProt P00533, L858R/T790M); assay: Detection of pEGFR on NSCLC cell lines (MSD multiplex), H1975; conditions: serum starved, 60 min compound
T3 construct: endogenous in cells; host or cells: H1975 NSCLC cells
Experimental: as §2

T2 sequence (P00533 25-1210): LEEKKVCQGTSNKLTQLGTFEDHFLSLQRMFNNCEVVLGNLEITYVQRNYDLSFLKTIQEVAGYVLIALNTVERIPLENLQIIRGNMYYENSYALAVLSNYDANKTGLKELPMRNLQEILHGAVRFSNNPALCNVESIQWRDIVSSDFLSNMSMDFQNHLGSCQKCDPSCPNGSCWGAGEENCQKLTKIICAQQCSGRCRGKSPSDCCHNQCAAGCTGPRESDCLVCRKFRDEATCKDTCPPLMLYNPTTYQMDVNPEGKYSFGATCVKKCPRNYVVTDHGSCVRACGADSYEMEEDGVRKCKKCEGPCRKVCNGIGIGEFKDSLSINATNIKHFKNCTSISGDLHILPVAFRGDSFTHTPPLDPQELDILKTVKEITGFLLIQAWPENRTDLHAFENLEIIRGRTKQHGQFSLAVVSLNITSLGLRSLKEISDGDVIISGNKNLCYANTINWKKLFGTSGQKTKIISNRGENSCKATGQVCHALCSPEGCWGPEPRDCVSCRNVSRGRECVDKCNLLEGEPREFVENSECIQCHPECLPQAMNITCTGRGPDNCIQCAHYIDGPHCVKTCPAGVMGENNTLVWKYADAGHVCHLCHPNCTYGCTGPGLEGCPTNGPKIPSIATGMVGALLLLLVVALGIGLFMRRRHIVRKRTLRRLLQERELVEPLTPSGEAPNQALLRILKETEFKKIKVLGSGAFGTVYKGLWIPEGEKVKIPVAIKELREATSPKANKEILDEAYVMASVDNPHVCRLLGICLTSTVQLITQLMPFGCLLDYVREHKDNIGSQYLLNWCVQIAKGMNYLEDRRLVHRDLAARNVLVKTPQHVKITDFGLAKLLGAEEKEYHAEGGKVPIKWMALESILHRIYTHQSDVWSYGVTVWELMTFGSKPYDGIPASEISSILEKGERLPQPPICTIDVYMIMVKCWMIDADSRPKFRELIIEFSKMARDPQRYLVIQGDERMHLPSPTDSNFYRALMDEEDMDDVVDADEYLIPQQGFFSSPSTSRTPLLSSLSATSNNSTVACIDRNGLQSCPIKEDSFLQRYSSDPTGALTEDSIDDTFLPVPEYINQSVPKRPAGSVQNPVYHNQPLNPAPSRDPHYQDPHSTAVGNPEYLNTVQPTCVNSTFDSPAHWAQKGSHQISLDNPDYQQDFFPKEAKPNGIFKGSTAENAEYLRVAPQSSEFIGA
T3 sequence (P00533 25-1210 T790M/L858R): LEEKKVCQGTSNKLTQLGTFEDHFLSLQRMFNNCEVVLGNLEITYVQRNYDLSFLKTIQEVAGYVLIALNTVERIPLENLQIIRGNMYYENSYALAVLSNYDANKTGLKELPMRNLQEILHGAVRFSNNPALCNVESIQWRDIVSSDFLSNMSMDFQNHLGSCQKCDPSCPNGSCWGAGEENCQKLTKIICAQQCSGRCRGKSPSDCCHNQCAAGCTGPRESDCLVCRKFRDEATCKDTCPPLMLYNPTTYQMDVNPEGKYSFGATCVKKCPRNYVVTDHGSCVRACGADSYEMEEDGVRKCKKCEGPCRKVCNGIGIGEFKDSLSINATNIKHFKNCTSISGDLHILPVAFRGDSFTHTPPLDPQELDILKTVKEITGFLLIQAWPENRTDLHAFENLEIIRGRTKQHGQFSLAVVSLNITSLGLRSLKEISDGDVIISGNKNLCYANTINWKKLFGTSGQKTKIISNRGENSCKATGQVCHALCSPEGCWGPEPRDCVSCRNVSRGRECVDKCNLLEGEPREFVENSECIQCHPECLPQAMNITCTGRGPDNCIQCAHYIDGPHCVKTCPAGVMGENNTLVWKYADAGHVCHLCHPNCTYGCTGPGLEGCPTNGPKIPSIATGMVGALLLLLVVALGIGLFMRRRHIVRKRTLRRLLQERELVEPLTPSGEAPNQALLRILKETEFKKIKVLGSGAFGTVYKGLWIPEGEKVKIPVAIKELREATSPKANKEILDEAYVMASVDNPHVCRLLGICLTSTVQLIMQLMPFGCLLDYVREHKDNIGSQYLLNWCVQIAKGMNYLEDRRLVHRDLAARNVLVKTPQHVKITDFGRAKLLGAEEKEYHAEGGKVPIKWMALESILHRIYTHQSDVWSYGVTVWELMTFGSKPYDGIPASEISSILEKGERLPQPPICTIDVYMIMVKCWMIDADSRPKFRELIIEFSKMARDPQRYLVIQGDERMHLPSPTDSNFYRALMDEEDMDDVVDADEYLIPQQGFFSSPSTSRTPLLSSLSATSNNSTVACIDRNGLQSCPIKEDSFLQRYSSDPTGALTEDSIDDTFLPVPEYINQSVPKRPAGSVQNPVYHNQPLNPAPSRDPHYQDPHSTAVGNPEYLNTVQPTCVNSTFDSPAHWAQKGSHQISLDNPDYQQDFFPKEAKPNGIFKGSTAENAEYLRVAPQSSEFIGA
T1 sequence (P00533 with tags, fused parts or gaps DEL746-750): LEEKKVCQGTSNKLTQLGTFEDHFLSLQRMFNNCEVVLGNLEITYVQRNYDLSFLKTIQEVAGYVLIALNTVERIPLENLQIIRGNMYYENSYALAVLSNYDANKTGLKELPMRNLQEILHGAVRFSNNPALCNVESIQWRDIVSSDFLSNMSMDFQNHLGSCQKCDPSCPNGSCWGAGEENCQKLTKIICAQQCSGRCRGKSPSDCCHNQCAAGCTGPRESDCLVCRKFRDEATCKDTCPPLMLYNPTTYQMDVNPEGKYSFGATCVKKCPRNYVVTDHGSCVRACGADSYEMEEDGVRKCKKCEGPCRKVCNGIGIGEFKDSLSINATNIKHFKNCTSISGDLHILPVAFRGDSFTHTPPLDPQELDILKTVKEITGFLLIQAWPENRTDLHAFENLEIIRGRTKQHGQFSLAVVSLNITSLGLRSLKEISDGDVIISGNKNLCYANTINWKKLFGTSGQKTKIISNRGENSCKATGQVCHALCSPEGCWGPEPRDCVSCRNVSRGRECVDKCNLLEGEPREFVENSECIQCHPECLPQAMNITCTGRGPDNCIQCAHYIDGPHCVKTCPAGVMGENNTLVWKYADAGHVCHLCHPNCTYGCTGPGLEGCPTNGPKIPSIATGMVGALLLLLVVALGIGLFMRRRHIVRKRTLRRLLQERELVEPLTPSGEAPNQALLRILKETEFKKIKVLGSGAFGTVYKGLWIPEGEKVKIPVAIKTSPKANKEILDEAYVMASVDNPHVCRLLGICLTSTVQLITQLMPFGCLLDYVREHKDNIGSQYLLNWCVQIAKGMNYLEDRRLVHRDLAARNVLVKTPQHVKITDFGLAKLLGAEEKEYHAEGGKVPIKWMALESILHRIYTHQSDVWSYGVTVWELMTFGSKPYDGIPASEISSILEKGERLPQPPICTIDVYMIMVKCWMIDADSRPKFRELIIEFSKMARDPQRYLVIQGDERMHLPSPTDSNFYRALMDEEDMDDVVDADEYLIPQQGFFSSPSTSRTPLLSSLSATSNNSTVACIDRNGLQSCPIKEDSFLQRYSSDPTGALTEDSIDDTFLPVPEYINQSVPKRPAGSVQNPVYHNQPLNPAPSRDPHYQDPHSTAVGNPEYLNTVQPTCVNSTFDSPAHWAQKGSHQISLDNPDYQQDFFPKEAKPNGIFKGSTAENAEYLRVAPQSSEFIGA

IC50 [2]	IC50 [3]	IC50 [5]	Compound	IC50 [1]	IC50 [4]	H1975 cell killing IC50 [1]
3.4 nM	76 nM	3.2 nM	C=CC(=O)Nc1cccc(-n2c(=O)ccc3cnc(Nc4ccc(N5CCN(C)CC5)cc4OC)nc32)c1 [Example 1, N-(3-(2-((2-methoxy-4-(4-methyl-1-piperazinyl)phenyl)amino)-7-oxopyrido[2,3-d]pyrimidin-8(7H)-yl)phenyl)-2-propenamide]	8 nM	4 nM	
			C=CC(=O)Nc1cccc(-n2c(=O)ccc3cnc(Nc4ccc(N5CCOCC5)cc4OC)nc32)c1 [Example 2, N-(3-(2-((2-methoxy-4-(4-morpholinyl)phenyl)amino)-7-oxopyrido[2,3-d]pyrimidin-8(7H)-yl)phenyl)-2-propenamide]			undefined
			C/C=C/C(=O)Nc1cccc(-n2c(=O)ccc3cnc(Nc4ccc(N5CCN(C)CC5)cc4OC)nc32)c1 [Example 3, (2E)-N-(3-(2-((2-methoxy-4-(4-methyl-1-piperazinyl)phenyl)amino)-7-oxopyrido[2,3-d]pyrimidin-8(7H)-yl)phenyl)-2-butenamide]	326 nM	126 nM	
			C=CC(=O)Nc1cccc(-n2c(=O)ccc3cnc(Nc4ccc(N5CCN(C)CC5)cc4)nc32)c1 [Example 4, N-(3-(2-((4-(4-methyl-1-piperazinyl)phenyl)amino)-7-oxopyrido[2,3-d]pyrimidin-8(7H)-yl)phenyl)-2-propenamide]	0.7 nM	1 nM	
	8.2 nM	4.3 nM	C=CC(=O)Nc1cccc(-n2c(=O)c(CC)cc3cnc(Nc4ccc(N5CCN(C)CC5)cc4OC)nc32)c1 [Example 6, N-(3-(6-ethyl-2-((2-methoxy-4-(4-methyl-1-piperazinyl)phenyl)amino)-7-oxopyrido[2,3-d]pyrimidin-8(7H)-yl)phenyl)-2-propenamide]	12 nM		
			C=CC(=O)Nc1cccc(-n2c(=O)cc(C)c3cnc(Nc4ccc(N5CCOCC5)cc4OC)nc32)c1 [Example 7, N-(3-(2-((2-methoxy-4-(4-morpholinyl)phenyl)amino)-5-methyl-7-oxopyrido[2,3-d]pyrimidin-8(7H)-yl)phenyl)-2-propenamide]		2.81 nM	undefined
			C=CC(=O)Nc1cccc(-n2c(=O)ccc3cnc(Nc4cnc(N5CCN(C)CC5)cc4OC)nc32)c1 [Example 8, N-(3-(2-((4-methoxy-6-(4-methyl-1-piperazinyl)-3-pyridinyl)amino)-7-oxopyrido[2,3-d]pyrimidin-8(7H)-yl)phenyl)-2-propenamide]	92 nM	21 nM	
			COc1cc(N2CCN(C)CC2)ccc1Nc1ncc2ccc(=O)n(-c3cccc(NC(=O)/C=C/CN(C)C)c3)c2n1 [Example 9, (2E)-4-(dimethylamino)-N-(3-(2-((2-methoxy-4-(4-methyl-1-piperazinyl)phenyl)amino)-7-oxopyrido[2,3-d]pyrimidin-8(7H)-yl)phenyl)-2-butenamide]	361 nM	53 nM	
	84 nM	2 nM	C=CC(=O)Nc1ccc(F)c(-n2c(=O)ccc3cnc(Nc4ccc(N5CCN(C)CC5)cc4OC)nc32)c1 [Example 10, N-(4-fluoro-3-(2-((2-methoxy-4-(4-methyl-1-piperazinyl)phenyl)amino)-7-oxopyrido[2,3]pyrimidin-8(7H)-yl)phenyl)-2-propenamide]	4 nM	4 nM	
5 nM	155 nM	6 nM	C=CC(=O)Nc1cccc(-n2c(=O)ccc3cnc(Nc4ccc(NC5CN(CCF)C5)cc4OC)nc32)c1 [Example 11, N-(3-(2-((4-((1-(2-fluoroethyl)-3-azetidinyl)amino)-2-methoxyphenyl)amino)-7-oxopyrido[2,3-d]pyrimidin-8(7H)-yl)phenyl)-2-propenamide]	9.6 nM	3 nM	
			COc1cc(N2CCN(C)CC2)ccc1Nc1ncc2ccc(=O)n(-c3cccc(NC(=O)CCl)c3)c2n1 [Example 12, 2-chloro-N-(3-(2-((2-methoxy-4-(4-methyl-1-piperazinyl)phenyl)amino)-7-oxopyrido[2,3-d]pyrimidin-8(7H)-yl)phenyl)acetamide]	680 nM	18 nM	
			COc1cc(N2CCN(C)CC2)ccc1Nc1ncc2ccc(=O)n(-c3cccc(NC(=O)CCN(C)C)c3)c2n1 [Example 13, 3-(dimethylamino)-N-(3-(2-((2-methoxy-4-(4-methylpiperazin-1-yl)phenyl)amino)-7-oxopyrido[2,3-d]pyrimidin-8(7H)-yl)phenyl)propanamide]	128 nM	76 nM	
			C=CC(=O)Nc1cccc(-n2c(=O)ccc3cnc(Nc4ccc(NC5CN(C(C)=O)C5)cc4OC)nc32)c1 [Example 14, N-(3-(2-((4-((1-acetylazetidin-3-yl)amino)-2-methoxyphenyl)amino)-7-oxopyrido[2,3-d]pyrimidin-8(7H)-yl)phenyl)acrylamide]	190 nM	24 nM	
			C=CC(=O)Nc1cccc(-n2c(=O)ccc3cnc(Nc4ccc(N5CCN(C)CC5)cc4Cl)nc32)c1 [Example 15, N-(3-(2-((2-chloro-4-(4-methyl-1-piperazinyl)phenyl)amino)-7-oxopyrido[2,3-d]pyrimidin-8(7H)-yl)phenyl)-2-propenamide]	11 nM	3.5 nM	
			C=CC(=O)Nc1cccc(-n2c(=O)cc(C)c3cnc(Nc4ccc(NC5CN(CCF)C5)cc4OC)nc32)c1 [Example 16, N-(3-(2-((4-((1-(2-fluoroethyl)-3-azetidinyl)amino)-2-methoxyphenyl)amino)-5-methyl-7-oxopyrido[2,3-d]pyrimidin-8(7H)-yl)phenyl)-2-propenamide]	22 nM	18 nM	
			C=CC(=O)Nc1cccc(-n2c(=O)cc(C)c3cnc(Nc4ccc(N5CCN(C)CC5)cc4)nc32)c1 [Example 17, N-(3-(5-methyl-2-((4-(4-methylpiperazin-1-yl)phenyl)amino)-7-oxopyrido[2,3-d]pyrimidin-8(7H)-yl)phenyl)acrylamide]	3.6 nM	7.3 nM	

Compound	IC50 [2]	IC50 [3]	IC50 [5]	IC50 [1]	IC50 [4]	H1975 cell killing IC50 [1]
C=CC(=O)Nc1cccc(-n2c(=O)cc(C)c3cnc(Nc4ccc(N5CCN(C)CC5)cc4OC)nc32)c1 [Example 5]	8 nM	323 nM	2.8 nM	4 nM	10 nM	
